Assay results published in patent US12653191B2, “Active compound combinations” (Bayer Aktiengesellschaft, priority 2020, dated 2026).
Where “and” joins values, the source holds several entries; their conditions need not be identical. Equal entries are not always repeated.

Experiments:
Alternaria alternate = assay: in vitro-Test with fungal microorganisms, Method A (tables A1-A12); format: cell-based, Alternaria alternata; details: applied alone
Procedure, shortened: (§1)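 Test compound in methanol plus alkylaryl-polyglycol-ether emulsifier was dried into wells, then liquid potato dextrose medium containing spores or mycelium of the fungus was added. Plates were incubated at 20° C and 85% relative humidity; growth read at 620 nm after 3-5 days, efficacy relative to untreated control.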

Alternaria alternata = assay: in vitro-Test with fungal microorganisms, Method B (tables A13-A22); format: cell-based; details: single compound
Procedure, shortened: (§2)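 Efficacy scale: 0% means growth equal to the untreated control, 100% means none detected. Compounds are dried from methanol with emulsifier before adding inoculated growth medium; incubation at 20° C., 85% relative humidity for 3 to 7 days precedes photometric inhibition readout.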

Botrytis cinerea [1] = assay: in vitro-Test with fungal microorganisms, Method A (tables B1-B14); format: cell-based; details: for Efficacy %: alone
Procedure, shortened: as §1

Botrytis cinerea [2] = assay: in vitro-Test with fungal microorganisms, Method B (tables B15-B18); format: cell-based; details: alone
Procedure, shortened: as §2

Cercospora beticola [3] = assay: in vitro-Test with fungal microorganisms, Method A (tables C1-C10); format: cell-based
Procedure, shortened: as §1

Cercospora beticola [4] = assay: in vitro-Test with fungal microorganisms, Method B (tables C11-C20); format: cell-based; details: single compound
Procedure, shortened: as §2

[5] = test system: Colletotrichum lindemuthianum; assay: in vitro-Test with fungal microorganisms, Method A (tables D1-D8); format: cell-based
Procedure, shortened: as §1

Cordana musae [6] = assay: in vitro-Test with fungal microorganisms, Method A (tables E1-E8); format: cell-based; details: single substance
Procedure, shortened: as §1

Cordana musae [7] = assay: in vitro-Test with fungal microorganisms, Method B (tables E9-E16); format: cell-based; details: for Efficacy %: single substance
Procedure, shortened: as §2

Diaporthe citri [8] = assay: in vitro-Test with fungal microorganisms, Method A (tables F1-F11); format: cell-based; details: applied alone
Procedure, shortened: as §1

Diaporthe citri [9] = assay: in vitro-Test with fungal microorganisms, Method B (tables F12-F15); format: cell-based
Procedure, shortened: as §2

Fusarium culmorum = assay: in vitro-Test with fungal microorganisms, Method B (tables G5-G15); format: cell-based
Procedure, shortened: as §2

Parastagonospora nodorum = assay: in vitro-Test with fungal microorganisms, Method A (tables H1-H4); format: cell-based
Method: Example: In Vitro-Test with Fungal Microorganisms
Wells of 96-well microtiter plates are filled with 10 μl of a preparation of test compound or compound combination in methanol+emulsifier alkylaryl-polyglycol-ether. Thereafter, the solvent is evaporated in a hood. At the next step, 100 μl of liquid potato dextrose medium is given into each well, that has been amended with an appropriate concentration of spores or mycelium suspension of the test fungus.
With the aid of a photometer, the extinction in all wells is measured at the wavelength of 620 nm.
The microtiter plates are incubated at 20° C. and 85% relative humidity. The inhibition of growth is determined again photometrically 3-5 days after the application. Efficacy is calculated in relation to the untreated control, 0% efficacy means fungal growth as high as in untreated control while 100% efficacy means no fungal growth is measured.
The data in tables A1 to A12, B1 to B14, C1 to C10, D1 to D8, E1 to E8, F1 to F11, G1 to G4, H1 to H4 and I1 to I5 were collected according to Method A. The data in tables A13 to A22, B15 to B18, C11 to C20, E9 to E16, F12 to F15, G5 to G15, H5 to H8, I6 to I11 and J1 to J11 were collected according to Method B.

[10] = test system: Ustilago segetum var. avenae; assay: in vitro-Test with fungal microorganisms, Method A (tables I1-I5); format: cell-based; details: alone
Procedure, shortened: as §1

[11] = test system: Ustilago segetum var. avenae; assay: in vitro-Test with fungal microorganisms, Method B (tables I6-I11); format: cell-based
Procedure, shortened: as §2

Colletotrichum coccodes = assay: in vitro-Test with fungal microorganisms, Method B (tables J1-J11); format: cell-based
Procedure, shortened: as §2

COc1ccnc(C(=O)N[C@H]2COC(=O)[C@H](Cc3ccccc3)[C@@H](OC(=O)C(C)C)[C@H](C)OC2=O)c1OCOC(=O)C(C)C [(3.025) fenpicoxamid, fenpicoxamid]
Efficacy % (Alternaria alternate; 0.04 ppm): 5% and 9%
Efficacy % (Alternaria alternate; 0.2 ppm): 2% and 7%
Efficacy % (Alternaria alternate; 1.0 ppm): 41% and 30%
Efficacy % (Alternaria alternate; 5.0 ppm): 76% and 59%
Efficacy (Alternaria alternata; 0.008 ppm): 6%
Efficacy (Alternaria alternata; 0.04 ppm): 14%
Efficacy (Alternaria alternata; 1 ppm): 61%
Efficacy (Botrytis cinerea [1]; 0.04 ppm): 6%
Efficacy (Botrytis cinerea [1]; 0.2 ppm): 6%
Efficacy (Botrytis cinerea [1]; 1.0 ppm): 21%
Efficacy % (Botrytis cinerea [1]; 0.04 ppm): 15%
Efficacy % (Botrytis cinerea [1]; 0.2 ppm): 9%
Efficacy % (Botrytis cinerea [1]; 1.0 ppm): 15%
Efficacy % (Botrytis cinerea [1]; 5.0 ppm): 45%
Efficacy % (Botrytis cinerea [2]; 0.008 ppm): 0%
Efficacy % (Botrytis cinerea [2]; 0.2 ppm): 14%
Efficacy % (Botrytis cinerea [2]; 1 ppm): 52%
Efficacy % (Cercospora beticola [3]; 0.04 ppm): 0%
Efficacy % (Cercospora beticola [3]; 0.2 ppm): 2%
Efficacy % (Cercospora beticola [3]; 0.2 ppm alone): 41% and 35%
Efficacy % (Cercospora beticola [3]; 1.0 ppm): 20%
Efficacy % (Cercospora beticola [3]; 1.0 ppm alone): 62% and 53%
Efficacy % (Cercospora beticola [3]; 5.0 ppm): 98%
Efficacy % (Cercospora beticola [3]; 5.0 ppm alone): 92% and 88%
Efficacy % (Cercospora beticola [4]; 0.008 ppm): 0%
Efficacy % (Cercospora beticola [4]; 0.2 ppm): 17% and 31%
Efficacy % (Cercospora beticola [4]; 1 ppm): 97% and 100%
Efficacy % ([5]; single active at 0.04 ppm): 0%
Efficacy % ([5]; single active at 0.2 ppm): 5%
Efficacy % ([5]; single active at 1.0 ppm): 69% and 66%
Efficacy % ([5]; single active at 5.0 ppm): 79% and 86%
Efficacy % (Cordana musae [6]; 1.0 ppm): 40%
Efficacy % (Cordana musae [6]; 5.0 ppm): 80%
Efficacy (Cordana musae [7]; single active, 0.2 ppm): 44%
Efficacy % (Cordana musae [7]; 0.008 ppm): 0%
Efficacy % (Cordana musae [7]; 0.2 ppm): 52%
Efficacy (Diaporthe citri [8]; 0.04 ppm): 3%
Efficacy (Diaporthe citri [8]; 1.0 ppm): 79% and 66%
Efficacy (Diaporthe citri [8]; 5.0 ppm): 92%
Efficacy (Diaporthe citri [9]; Table F12, 0.008 ppm alone): 0%
Efficacy (Diaporthe citri [9]; Table F12, 0.2 ppm alone): 83%
Efficacy (Diaporthe citri [9]; Table F12, 1 ppm alone): 94%
Efficacy (Diaporthe citri [9]; Table F13, 0.2 ppm alone): 79%
Efficacy (Fusarium culmorum; 0.008 ppm alone): 10%
Efficacy (Fusarium culmorum; single active compound, 0.008 ppm): 7% and 5%
Efficacy (Fusarium culmorum; single active compound, 0.04 ppm): 1% and 9%
Efficacy (Fusarium culmorum; single active compound, 0.2 ppm): 18% and 25%
Efficacy (Fusarium culmorum; single active compound, 1 ppm): 17%
Efficacy (Parastagonospora nodorum; 0.04 ppm): 19%
Efficacy (Parastagonospora nodorum; 0.2 ppm): 61%
Efficacy (Parastagonospora nodorum; 1.0 ppm): 64%
Efficacy (Parastagonospora nodorum; 5.0 ppm): 72%
Efficacy % ([10]; 0.04 ppm): 0%
Efficacy % ([10]; 0.2 ppm): 0%
Efficacy % ([10]; 1.0 ppm): 0%
Efficacy % ([10]; 5.0 ppm): 0%
Efficacy % ([11]; 0.008 ppm): 14%
Efficacy % ([11]; 0.04 ppm): 6%
Efficacy % ([11]; 0.2 ppm): 1%
Efficacy % (Colletotrichum coccodes; single active compound at 0.2 ppm): 23% and 33%
Efficacy % (Colletotrichum coccodes; single active compound at 1 ppm): 16%
